Data on one compound can be found in patent US10160766B1, “Benzopyranyl tetracycle compound and pharmaceutical composition having excellent anti-inflammatory effect comprising the same” (Spark Biopharma, Inc., priority 2017, dated 2018).

What is called inhibition is the relative decrease from the control value, in per cent.

Data set [1] concerns NF-κB p65. The data set is described as follows: NF-κB p65 immunofluorescence (migration to the nucleus). Type of data set: cell-based. The conditions noted are these: Raw264.7 cells, 500 ng/mL LPS. The source says:
It is concluded that Compounds 1d, 2j, and 2l controlled and regulated the inflammatory signaling pathways in activated macrophages.

The subject of data set [2] is IL-6 secreted from Raw 264.7 cells. Put plainly: Western blot analysis of IL-6 secretion. The conditions noted are these: pretreatment with compounds. Type of data set: cell-based. The procedure: From the results shown in Table 6, Compounds 2j (68%) and 2l (60%) had better TNF-α release inhibitory effect than that of Compound 1d (43%). Therefore, the inhibitory effect of IL-6 release secretion was analyzed with the Western blot analysis in order to additionally confirm the inflammation inhibitory effect of Compounds 2j and 2l.
(§1) Western Blot Analysis Protein sampling was done in 4° C. Cells were harvested in RIPA lysis buffer containing protease inhibitor cocktail and phosphatase inhibitor.
(§2) After centrifugation at 15000 rpm for 20 minutes, supernatant was transferred to new 1.5 mL tube. Protein concentration was normalized with a Micro BCA protein assay kit. The protein samples were analyzed with the Western blot procedure. Protein was transferred into PVDF membrane after SDS-PAGE. Membrane was blocked after transfer step, with 2% BSA in TBST for 1 hour in room temperature.
(§3) Primary antibodies were treated overnight at 4° C. or 1 hour in room temperature, followed by washing with TBST.
(§4) HRP-conjugated secondary antibodies were treated for 1 hour in room temperature. Antibodies were diluted in 1% BSA in TBST solution, with the concentration indicated in antibody manufacturer's protocol. After washing with TBST, the membrane was developed by Amersham ECL prime solution. Chemiluminescent signal was measured by ChemiDoc MP imaging system, and relative quantification were followed using ImageLab 4.0 software. The quantification result was processed with GraphPad Prism 5.0 software.
(In western blotting, separated proteins are transferred to a membrane and probed.)

For data set [3], the system named is MAPK including p38, JNK, and ERK. The data set is described as follows: Western blot of MAPK phosphorylation. In kind it is cell-based. The settings on record: Raw264.7 cells. The method, then: as §1, §2, §3, §4
Data set [4] is described as follows: PK profiles in mouse. In kind it is in vivo. The settings on record: ip injection. The text has this:
(§5) The aqueous solubility, liver microsomal stabilities and PK profiles was measure for Compounds 1d, 2j, and 2l in the in vivo CLP-induced mouse models.

Data set [5] has as its system IL-6. The data set is described as follows: IL-6 level in CLP-induced mice (ELISA). The settings on record: CLP mouse model, daily dose of 10 mg/kg for 9 days starting 1 hour before CLP induction. (In general: ELISA stands for enzyme-linked immunosorbent assay.)
Description: After 4 hours, media were transferred to new transparent 96-well plate and diluted with 1% BSA in PBS solution. ELISA assay was performed following the manufacturer's protocol.
ELISA plates (Costar, Cambridge, Mass.) were coated overnight with anti-IL-6 monoclonal antibody (eBioscience, San Diego, Calif.) at 4° C. Wells were blocked with PBS containing 1% bovine serum albumin (Sigma-Aldrich, St. Louis, Mo.) for 1 hour at room temperature (RT) and incubated with serum overnight at 4° C.
After washing, plates were incubated with biotinylated anti-IL-6 antibody (eBioscience) for 1 hour at RT. Streptavidin-conjugated horseradish peroxidase (eBioscience) is attached for 1 hour at RT. Then, Color was developed using TMB solution (eBioscience),
Absorbance was read at 450 nm with a Multiskan Ascent (Labsystems, Kennett Square, Pa.). All experiments were independently performed at least three times.
Data set [6] can be described thus: Liver microsomal stability, mouse. Type of data set: in vitro ADME. The conditions noted are these: mouse liver microsomal.
Text: as §5
In general terms: Liver microsomes are a subcellular fraction often used to study metabolism.

For data set [7], the system named is Raw 264.7 cell. Put plainly: WST (water-soluble tetrazolium) analysis, relative cell viability. In kind it is cell-based. The conditions noted are these: 100 ng/mL LPS and compounds 24 hours. The method, then:
Relative cell viability of Compound 2a to 2o prepared in Examples 2 was measured by WST (water-soluble tetrazolium) analysis.
Raw 264.7 cell was seeded in transparent 96-well plate and maintained for 1 day.
Media was aspirated, and each well was washed with serum free DMEM for twice. Each well was refilled with serum-free DMEM. Then, 100 ng/mL LPS and compounds were treated afterward and cultured for 24 hours. After the incubation, the supernatant culture media was transferred to new 96-well plate.
Immediately after transferring media, cell-seeded wells were refilled with 100 μL of 10% FBS and 1% antibiotic-antimycotic containing DMEM. Then, 10 μL of Ez-cytox WST assay reagent was used to treat each well, following the manufacturer's protocol.
After incubating for 20 min in a 5% CO2 incubator at 37° C. with humidified atmosphere, absorbance was read at 450 nm.
Blank values were obtained from the well only treated with 10% FBS and 1% antibiotic-antimycotic containing DMEM.

The subject of data set [8] is TNF-α secretion in Raw264.7 cell. The data set is described as follows: ELISA of secreted TNF-α. In kind it is cell-based. The conditions noted are these: Mus musculus, LPS 100 ng/mL, compounds 10 μM, read-out: TNF-α Inhibition Rate (%). The procedure: Thus, in order to additionally confirm the inflammation inhibitory effects of Compounds 2f to 2l, the inhibition rate of TNF-α secretion was quantitatively measured by ELISA.
Cells were treated with each Compound 1d, or 2f to 2l, and LPS for 24 hours, followed by ELISA for TNF-α present in the culture solution.
In order to measure the amount of secreted TNF-α, Raw264.7 cell was seeded in transparent 96-well plate and maintained for 1 day. Media was aspirated after 1 day and replaced to serum-free DMEM with 1% (v/v) antibiotic-antimycotic solution. LPS and compounds were treated in a final concentration of 100 ng/mL and 10 μM.
Standard curve was plotted by the dose-dependent treatment of the control TNF-α protein provided with the ELISA kit. Blank value was measured by adding solutions without TNF-α substrate.
The TNF-α secretion inhibition rate of Compounds 1d, and 2f to 2l was confirmed, when compared with control groups.

Data set [9] in a line: Liver microsomal stability, human. Type of data set: in vitro ADME. The conditions noted are these: human liver microsomal.
Text: as §5

Data set [10] has as its system CLP-induced mice. The data set is described as follows: Survival rate in CLP-induced mouse model.
Text: Briefly, the CLP mouse model is established by performing a surgical procedure to the cecum, which is the organ where the resident enteric microbiome exists. Ligating the cecum and puncturing the end with a needle causes endotoxemia by inducing polymicrobial contamination in the abdominal cavity toward the circulatory system.
Data set [11] relates to NO release in Raw264.7 cells. The data set is described as follows: Griess assay, inhibition of nitric oxide release. In kind it is cell-based. The settings on record: 100 ng/mL LPS and compounds 24 hours, compared with control group. The procedure:
Thus, the Griess assay was used to measure nitric oxide secretion for inflammation inhibition in Raw264.7 cells.
Raw 264.7 macrophage cell was cultured in Dulbecco Modified Eagle Medium (DMEM) with 10% (v/v) fetal bovine serum (FBS) and 1% (v/v) antibiotic-anti mycotic solution.
Cell was maintained in a 100 mm cell culture dish under cell culture conditions (5% CO2 incubator at 37° C. with humidified atmosphere).
Griess assay reagent was generated prior to the assay with the following contents listed below: N-(1-naphthyl) ethylenediamine dihydrochloride, 0.1% (m/v); sulfanilamide, 1% (m/v); phosphoric acid (85%); 5% (v/v) in deionized water.
Raw 264.7 cell was seeded in transparent 96-well plate and maintained for 1 day. Media was aspirated, and each well was washed with serum free DMEM for twice. Each well was refilled with serum-free DMEM.
Then 100 ng/mL LPS and compounds were treated afterward and cultured for 24 hours. After the incubation, the supernatant culture media was transferred to new 96-well plate and mixed with 50 μL of Griess assay reagent.
Media-reagent mixture was incubated at room temperature for several minutes. Absorbance was read at 548 nm. Four wells each were used for the control experiment, LPS and DMSO (without any compounds) treated well, and DMSO-only treated well. Blank values were measured.
Blank values were measured by mixing 50 μL of Griess assay reagent with […] and 1% antibiotic-antimycotic containing DMEM.
As for the compounds in which the double bond of the tetrahydropyridazine ring in Compound 1d is moved or eliminated, the inhibition rate of NO release was measured in the same manner as in Test Example 2.
The inhibition rate of NO release for Compounds 2a to 2o prepared in Example 2 was tested in order to confirm the anti-inflammatory effect for the above compounds.

Data set [12] relates to HMGB1. Put plainly: Immunofluorescence of cellular localization of HMGB1 upon LPS treatment. Type of data set: cell-based. The conditions noted are these: Raw264.7 cell, 20 μM compounds 1 hour prior to 500 ng/mL LPS for 2 hours. The procedure:
From the results shown in Table 6, Compounds 2j (68%) and 2l (60%) had better TNF-α release inhibitory effect than that of Compound 1d (43%). Therefore, it was analyzed with the immunofluorescence whether Compounds 2j and 2l may inhibit the cellular localization of HMGB1 upon LPS treatment.
Raw264.7 cell was seeded in “Nunc Lab-Tek II” chambered coverglass and maintained for 1 day.
Then, 20 μM of compounds were treated 1 hour prior to 500 ng/mL LPS treatment for 2 hours.
After aspirating the media and washing with PBS, 200 μl of 4% paraformaldehyde solution was treated and incubated at room temperature for 20 minutes. Then, 4% paraformaldehyde solution was aspirated and the sample was washed with PBS three times.
For the permeabilization to enable antibody binding, 200 μL of methanol was treated and incubated at −20° C. for 20 minutes. Methanol was then removed and the sample was washed with PBS three times.
Sample was blocked with 2% BSA in PBS solution at room temperature for 1 hour. Then, 2% BSA in PBS solution was removed and primary antibody containing 1% BSA in PBS was treated at 4° C. overnight. Antibody concentration was optimized according to the manufacturer's protocol. Primary antibody solution was removed and the sample was washed with PBS three times. Secondary antibody containing 1% BSA in PBS solution was treated at room temperature for 1 hour.
The secondary antibody used was goat anti rabbit TRITC labeled antibody from Abcam.
After 1 hour, antibody solution was aspirated and the sample was washed with PBS three times. For nucleus staining, Hoechst 33342 was diluted in PBS, and each well was treated and incubated at room temperature for 1 hour. Hoechst 33342 was then removed and the chamber was filled with PBS, continued for imaging using DeltaVision microscope.

In the case of `CC1(C)Oc2cc(O)ccc2C2C1=CCn1c(=O)n(-c3ccccc3)c(=O)n12` (stereo not shown) [Compound 1d, inflachromene], the “migration of NF-κB to the nucleus” value in data set [1] is recorded as “inhibit the migration of NF-κB to the nucleus”. Also, in data set [2], the “level of IL-6 secreted (western blot)” value is recorded as “significantly reduced”. Moreover, the “phosphorylation of MAPK including p38, JNK, and ERK” value in data set [3] is “clearly inhibited the phosphorylation of MAPK including p38, JNK, and ERK”. Moreover, in data set [4], the “PK data AUC” value worked out at 327 ± 68.7 µg·h/mL, the “PK data Cmax” value stood at 387 ± 122 µg/mL, the “PK data T1/2” value is recorded as 3.87 ± 0.84 h and the “PK data Tmax” value was 8.4 ± 6 min. For the same compound, the “IL-6 levels in surviving mice, compared with control group” value in data set [5] was “significantly reduced”. Besides, the “microsomal stability Mouse(%)” value in [6] is listed as 0.41 ± 0.10%. Further, the “Relative Cell Viability (%)” value in data set [7] is recorded as 105%. Also, the inhibition at 10 µM in data set [8] worked out at 43%. In addition, the “microsomal stability Human(%)” value in data set [9] was 0.82 ± 0.29%. In addition, in data set [10] (CLP mice, intraperitoneally, daily dose of 10 mg/kg for 21 days, start 1 hour before induction), the survival rate entry was “about 45%”. Besides, in [10] (CLP-induced mice, ip 10 mg/kg for 9 days), the “survival rate, in words, compared with vehicle-treated group” value was “significantly increased”. Moreover, the “NO Inhibition rate (%)” value in [11] amounted to 87%. In addition, the “translocation of HMGB1 from the nucleus to the cytosol” value in [12] was “inhibited the translocation of HMGB1 from the nucleus to the cytosol”.
